Experiments:
HMGCoAR = experiment: Western blot, HMGCoAR protein level in HepG2 cells; format: cell-based, human; details: HepG2, 50 µM, 24 h, mean ± SD
Experimental: (§1) The HepG2 cell line was bought from ATCC (HB-8065, ATCC from LGC Standards, Milan, Italy) and was cultured in DMEM high glucose with stable L-glutamine, supplemented with 10% FBS, 100 U/mL penicillin, 100 µg/mL streptomycin (complete growth medium) with incubation at 37 °C under 5% CO2 atmosphere.
(§2) Immunoblotting experiments were performed using optimized protocol. A total of 1.5 × 10^5 HepG2 cells/well (24-well plate) were treated with 50 μM of P5 and P5-met for 24 h. After each treatment, the supernatants were collected and stored at −20°C; cells were scraped in 40 µL ice-cold lysis buffer (RIPA buffer + inhibitor cocktail + 1:100 PMSF + 1:100 Na-orthovanadate + 1:1000 β-mercaptoethanol) and transferred in ice-cold microcentrifuge tubes. […] Total proteins were quantified by the Bradford’s method and 50 μg of total proteins loaded on a pre-cast 7.5% Sodium Dodecyl Sulfate-Polyacrylamide (SDS-PAGE) gel at 130 V for 45 min. […] Target proteins, on milk or BSA blocked membrane, were detected by primary antibodies as follows: anti-SREBP-2, anti-LDLR, anti-HMGCoAR, anti-PCSK9, anti HNF1-α and anti-β-actin. Secondary antibodies conjugated with HRP and a chemiluminescent reagent were used to visualize target proteins and their signal was quantified using the Image Lab Software (Biorad, Hercules, CA, USA). […]

secreted mature PCSK9 = experiment: Quantification of PCSK9 secreted by HepG2 cells through ELISA; format: cell-based, human; details: HepG2 supernatants, 50 µM, mean ± SD
Experimental: The supernatants collected from treated HepG2 cells (50.0 μM of P5 and/or P5-met) were centrifuged at 600 × g for 10 min at 4 °C and ELISA assay performed using protocol already optimized. They were recovered and diluted to the ratio 1:10 with DMEM in a new ice-cold tube. PCSK9 was quantified by ELISA (R&D System, Minneapolis, MN, USA). Briefly, the experiments were carried out at 37 °C, following the manufacturer’s instructions. Before starting the assay, human PCSK9 standard curve (20.0, 10.0, 5.0, 2.5, 1.25, and 0.625 ng/mL) was prepared by serial dilutions from a 40 ng/mL stock. 100 µL of the Assay Diluent RD1-9 (provided into the kit) were placed in each well, before adding the standards and the samples (50 µL) and incubating the ELISA plate for 2 h at RT. Subsequently, wells were washed 4 times with the wash buffer, and 200 µL of human PCSK9-conjugate (HRP-labelled anti-PCSK9) was added to each well for 2 h at RT. Following aspiration, wells was washed 4 times with the kit wash buffer. After the last wash, 200 µL of substrate solution were added to the wells and allowed to incubate for 30 min at RT. The reaction was stopped with 50 µL of the stop solution (2 M sulfuric acid) and the absorbance at 450 nm was measured using Synergy H1 microplate (Winooski, VT, USA).

[1] = target: T1, HMGCoAR (catalytic domain) (Homo sapiens, UniProt P04035); experiment: HMGCoAR activity assay; format: biochemical; details: 10-500 µM peptide, 37 °C, NADPH absorbance 340 nm at 0 and 10 min
T1 construct: finally the HMGCoAR (catalytic domain) (2 µL); purchased Sigma-Aldrich
T1 sequence (P04035 340-888 limits assumed): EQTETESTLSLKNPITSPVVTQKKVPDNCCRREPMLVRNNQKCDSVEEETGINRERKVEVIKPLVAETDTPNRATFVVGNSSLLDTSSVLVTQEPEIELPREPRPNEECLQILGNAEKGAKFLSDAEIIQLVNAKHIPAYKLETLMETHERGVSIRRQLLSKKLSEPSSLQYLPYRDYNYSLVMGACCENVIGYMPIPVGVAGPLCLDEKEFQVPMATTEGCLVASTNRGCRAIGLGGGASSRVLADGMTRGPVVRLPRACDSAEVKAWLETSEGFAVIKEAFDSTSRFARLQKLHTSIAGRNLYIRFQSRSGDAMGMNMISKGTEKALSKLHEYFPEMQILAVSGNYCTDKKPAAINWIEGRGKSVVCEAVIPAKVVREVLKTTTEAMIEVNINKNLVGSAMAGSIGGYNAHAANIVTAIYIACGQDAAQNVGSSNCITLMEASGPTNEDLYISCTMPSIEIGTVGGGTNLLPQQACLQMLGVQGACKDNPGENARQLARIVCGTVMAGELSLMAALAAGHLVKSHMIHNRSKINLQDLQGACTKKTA
Experimental: The experiments were carried out following the manufacturer instructions and optimized protocol. The assay buffer, NADPH, substrate solution, and HMGCoAR were provided in the HMGCoAR Assay Kit (Sigma Aldrich SRL, Milan, Italy). The experiments were carried out following the manufacturer instructions at 37 °C. In particular, each reaction (200 µL) was prepared adding the reagents in the following order: 1× assay buffer, a 10–500 µM doses of P5 and P5-met or vehicle (C), the NADPH (4 µL), the substrate solution (12 µL), and finally the HMGCoAR (catalytic domain) (2 µL). Subsequently, the samples were mixed and the absorbance at 340 nm read by the microplate reader Synergy H1 (Winooski, VT, USA) at time 0 and 10 min. The HMGCoAR-dependent oxidation of NADPH and the inhibition properties of peptides were measured by absorbance reduction, which is directly proportional to enzyme activity.

PCSK9 = experiment: Western blot, PCSK9 protein level in HepG2 cells; format: cell-based, human; details: HepG2, 50 µM, 24 h, mean ± SD
Experimental: as §1, §2

Substance: H-LPKHSDAD-OH [Peptide P5-met]
- HMGCoAR protein level versus the control (HMGCoAR): 117.9 ± 12.1%
- Decrease of the secretion of mature PCSK9 (secreted mature PCSK9): 22.2 ± 4.9%
- IC50 [1]: 175 µM
- Decrease of PCSK9 protein level (PCSK9): 29 ± 8.1%

From PMC8000724, “Trans-Epithelial Transport, Metabolism, and Biological Activity Assessment of the Multi-Target Lupin Peptide [sequence] (P5) and Its Metabolite [sequence] (P5-Met)” (Nutrients, 2021)
